Source: patent US20230104124A1, “N-PALMITOYLETHANOLAMIDE AND DOCOSAHEXAENOIC ACID FOR USE IN THE TREATMENT OF AUTISM SPECTRUM DISORDER AND OTHER DEPRESSIVE SYNDROMES” (EPITECH GROUP S.P.A., priority 2021, published 2023)

Key:
BTBR mice [1] = experiment: Marble Burying test in BTBR mice; type: in vivo; details: per os daily for 10 days, PEA-um 1 mg/kg, DHA 5 mg/kg (30 mg/kg DHA 17% titer), 8 animals per group
From the text: (§1) Healthy male C57BL/6J (C57) mice and 90-day BTBR T+tf/J (BTBR) mice (The Jackson Laboratory, Bar Harbor, ME, USA) fed ad libitum and housed in controlled sleep/wake cycle cages were used in the in vivo trial. Before the start of the experimentation, the animals were subjected to an acclimatization period of 1 week considering all the experimental procedures and protocols, compliant with the principles of care and welfare of laboratory animals approved by the Italian Ministry of Health (Italian Legislative Decree 2014/26) and European directives (EU Directive 2010/63). […]
(§2) All the values reported in the results are expressed as mean ± standard error of the mean (SEM) of N observations (N = number of animals). The statistical differences in the ALLO dosage and behavioral score were analyzed with one-way ANOVA, followed by Sidak’s multiple comparisons. […]

BTBR mice [2] = experiment: Self Grooming test in BTBR mice; type: in vivo; details: monitored for 20 minutes, per os daily for 10 days, PEA-um 1 mg/kg, DHA 5 mg/kg (30 mg/kg DHA 17% titer)
From the text: as §1, §2
In the Self Grooming test, the mice were placed in an empty plexiglass cage (30x40 cm) and allowed to freely explore the arena. After 10 minutes of acclimatization, self grooming activity was monitored for 20 minutes. […]

BTBR mice [3] = experiment: Sociability, three-chamber test in BTBR mice; type: in vivo; details: per os daily for 10 days, PEA-um 1 mg/kg, DHA 5 mg/kg (30 mg/kg DHA 17% titer)
From the text: as §1, §2
(§3) In the last 10-minute phase, the preference of the mouse in staying in the empty chamber or in the presence of the mouse was evaluated (Crawley JN, Designing mouse behavioral tasks relevant to autistic-like behaviors, Ment. Retard Dev. Disabil. Res. Rev. 2004, 10: 248-258). The time spent in each chamber was detected by a camera coupled to video tracking software.

C57 mice = experiment: Sociability, three-chamber test in healthy C57 mice; type: in vivo; details: per os daily for 10 days, PEA-um 1 mg/kg, DHA 5 mg/kg (30 mg/kg DHA 17% titer)
From the text: as §1, §2, §3

plasma ALLO levels = experiment: Plasma ALLO neurosteroid levels in BTBR mice; type: in vivo; details: plasma 10 days after starting daily per os treatment, PEA-um 1 mg/kg, DHA 5 mg/kg (30 mg/kg DHA 17% titer)
From the text: as §1, §2

[4] = tested on: mice with a simil-autistic phenotype; details: cited from earlier work
autistic children = details: PEA-um 600 mg/day, 3-month treatment; cited from earlier work
[5] = intravenous infusion; during the 60 hours of administration; cited from earlier work

SMILES | Number of marbles buried in 15 min (obsessive behavior) (BTBR mice [1]) | Time spent self-grooming (repetitive behavior) (BTBR mice [2]) | Sociability (time spent in empty chamber or chamber occupied by a mouse) (BTBR mice [3]) | Sociability (time spent in empty chamber or chamber occupied by a mouse) (C57 mice) | Plasma ALLO levels (plasma ALLO levels) | Altered behavioral status [4] | Expression of pro-inflammatory hippocampal and serum cytokines IL-6, IL-1b and TNF-a [4] | Clinical effect on autistic symptoms (autistic children) | Risks during administration [5]
CCCCCCCCCCCCCCCC(=O)NCCO [PEA-um, N-palmitoylethanolamide] | obsessively bury the marbles | did not demonstrate any reduction in the time (s) spent self-grooming | did not demonstrate social improvements | enhanced sociability to another mouse | significant reduction in plasma ALLO levels | modulating the altered behavioral status | reducing the expression of the pro-inflammatory hippocampal and serum cytokines IL-6, IL-1b and TNF-a | improves aggressiveness, cognitive and behavioral skills, and communication | 
CC(=O)[C@H]1CC[C@H]2[C@@H]3CC[C@H]4C[C@H](O)CC[C@]4(C)[C@H]3CC[C@]12C [Zulresso, allopregnanolone] |  |  |  |  |  |  |  |  | risk of excessive sedation, sudden loss of consciousness or dizziness
